Assay results as given in ChEMBL document CHEMBL1201862, “PubChem BioAssay data set” (2004).
The source made the active and inactive calls.

Key:
[1] = target: T1, Sentrin-specific protease 8 (Homo sapiens, UniProt Q96LD8); assay type: functional
T1 sequence (Q96LD8 whole entry): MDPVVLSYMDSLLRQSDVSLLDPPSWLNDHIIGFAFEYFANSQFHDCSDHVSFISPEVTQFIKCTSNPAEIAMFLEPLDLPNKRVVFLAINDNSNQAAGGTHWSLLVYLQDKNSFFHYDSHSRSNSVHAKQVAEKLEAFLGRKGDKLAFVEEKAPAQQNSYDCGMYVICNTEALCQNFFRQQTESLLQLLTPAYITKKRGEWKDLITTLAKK

[2] = target: T1, Sentrin-specific protease 8; assay type: functional; remark: listed apart in the source
[3] = target: T2, Replicative DNA helicase DnaB (Mycobacterium tuberculosis, UniProt P9WMR3); test: DnaB intein splicing inhibitors, dose response, biochemical, cell-free fluorescence (AID 449749); assay type: functional
T2 sequence (P9WMR3 whole entry): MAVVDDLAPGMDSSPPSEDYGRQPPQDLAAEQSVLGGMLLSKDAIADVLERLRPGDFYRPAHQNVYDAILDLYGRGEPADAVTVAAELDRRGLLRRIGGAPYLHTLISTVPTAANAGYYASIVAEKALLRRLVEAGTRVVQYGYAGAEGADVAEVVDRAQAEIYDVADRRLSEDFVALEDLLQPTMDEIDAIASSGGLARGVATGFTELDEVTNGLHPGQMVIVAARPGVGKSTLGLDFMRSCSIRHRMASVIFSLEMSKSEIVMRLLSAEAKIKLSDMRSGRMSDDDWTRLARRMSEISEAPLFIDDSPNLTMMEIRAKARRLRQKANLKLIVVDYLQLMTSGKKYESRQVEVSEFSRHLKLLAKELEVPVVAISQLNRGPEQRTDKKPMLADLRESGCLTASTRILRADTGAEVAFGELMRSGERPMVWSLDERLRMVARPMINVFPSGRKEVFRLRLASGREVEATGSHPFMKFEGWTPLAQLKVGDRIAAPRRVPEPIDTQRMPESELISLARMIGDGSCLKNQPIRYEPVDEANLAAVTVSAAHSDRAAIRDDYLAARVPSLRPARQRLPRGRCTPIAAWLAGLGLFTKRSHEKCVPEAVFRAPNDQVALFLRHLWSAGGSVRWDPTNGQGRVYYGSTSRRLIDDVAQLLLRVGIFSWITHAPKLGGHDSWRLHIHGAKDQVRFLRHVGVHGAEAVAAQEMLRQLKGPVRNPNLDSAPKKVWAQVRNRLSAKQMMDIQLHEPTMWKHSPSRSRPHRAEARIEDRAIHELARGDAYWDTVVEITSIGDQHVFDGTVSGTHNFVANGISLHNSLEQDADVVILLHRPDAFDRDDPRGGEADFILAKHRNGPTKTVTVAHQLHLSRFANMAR

Protein RecA = target: T3, Protein RecA (Mycobacterium tuberculosis, UniProt P9WHJ3); test: Fluorescence Cell-Free Homogeneous Dose Retest to Identify Inhibitors of RecA-Intein Splicing Activity. [Related pubchem assays (depositor defined):AID2097, AID2223, AID489010, AID492950]; assay type: functional
T3 sequence (P9WHJ3 whole entry): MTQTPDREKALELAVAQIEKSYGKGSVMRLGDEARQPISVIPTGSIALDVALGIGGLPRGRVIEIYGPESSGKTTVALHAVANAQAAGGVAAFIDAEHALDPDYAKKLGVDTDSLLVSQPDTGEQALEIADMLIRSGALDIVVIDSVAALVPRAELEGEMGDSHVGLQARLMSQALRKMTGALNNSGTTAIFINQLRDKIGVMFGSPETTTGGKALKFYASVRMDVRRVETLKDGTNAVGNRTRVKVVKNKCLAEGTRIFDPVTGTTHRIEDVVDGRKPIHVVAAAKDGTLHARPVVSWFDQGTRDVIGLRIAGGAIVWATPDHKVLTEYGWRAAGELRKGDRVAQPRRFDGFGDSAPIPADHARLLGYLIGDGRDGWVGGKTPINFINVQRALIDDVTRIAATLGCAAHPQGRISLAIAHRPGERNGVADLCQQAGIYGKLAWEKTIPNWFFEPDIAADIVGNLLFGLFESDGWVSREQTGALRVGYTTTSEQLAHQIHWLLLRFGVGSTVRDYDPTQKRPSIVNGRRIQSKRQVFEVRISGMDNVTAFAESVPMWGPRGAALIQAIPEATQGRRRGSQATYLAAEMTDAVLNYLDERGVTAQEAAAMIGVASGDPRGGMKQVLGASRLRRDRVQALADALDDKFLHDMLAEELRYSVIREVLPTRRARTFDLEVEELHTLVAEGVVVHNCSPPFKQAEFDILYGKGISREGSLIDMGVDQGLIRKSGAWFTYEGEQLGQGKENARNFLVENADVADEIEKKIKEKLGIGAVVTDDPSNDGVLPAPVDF

[4] = Fluorescence-based cell-based high throughput dose response assay for inhibitors of the interaction of nucleotide-binding oligomerization domain containing 2 (NOD2) and the receptor-interacting serine-threonine kinase 2 (RIPK2).; assay type: functional; conditions: Homo sapiens
[5] = A cytotoxicity screen of small molecule inhibitors of the PhoP region in Salmonella typhi identified in the primary screen. [Related pubchem assays: 1850, 1864, 1985 ]; assay type: functional
[6] = target: T4, Heat shock factor protein 1 (Mus musculus, UniProt P38532); test: decrease of HSF1-responsive luciferase luminescence – cell-based, NIH3T3, dose retest, confirmation (AID 2382); assay type: functional;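 also: NIH3T3 fibroblasts with HSF1-driven luciferase reporter stressed by proteasome inhibitor MG132; luminescence from HSF1-driven luciferase expression after 8 hours of MG132 stress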
T4 sequence (P38532 whole entry): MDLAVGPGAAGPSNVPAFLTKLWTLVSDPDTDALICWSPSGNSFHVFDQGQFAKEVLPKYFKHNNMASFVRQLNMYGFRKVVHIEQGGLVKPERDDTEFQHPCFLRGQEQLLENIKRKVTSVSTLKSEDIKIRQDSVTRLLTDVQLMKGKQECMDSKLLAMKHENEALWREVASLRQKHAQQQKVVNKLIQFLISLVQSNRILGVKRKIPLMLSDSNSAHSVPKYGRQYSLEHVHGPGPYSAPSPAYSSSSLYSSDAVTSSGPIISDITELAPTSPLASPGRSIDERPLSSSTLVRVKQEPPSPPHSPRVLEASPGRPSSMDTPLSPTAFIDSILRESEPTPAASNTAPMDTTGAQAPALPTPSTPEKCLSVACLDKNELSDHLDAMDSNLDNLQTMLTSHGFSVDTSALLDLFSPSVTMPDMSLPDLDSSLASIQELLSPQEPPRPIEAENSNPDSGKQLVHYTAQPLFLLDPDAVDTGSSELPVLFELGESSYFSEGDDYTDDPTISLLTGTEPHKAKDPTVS

[7] = Luminescence-based counterscreen assay for KLF5 inhibitors: dose response cell-based high throughput screening assay to identify cytotoxic compounds using the IEC-6 intestinal epithelial cell line. [Related pubchem assays: 1700 (Primary screen.), 1834 (Confirmation screen.), 1858 (Summary AID.), 1905 (Counterscreen.)]; assay type: functional
[8] = blockers of HIV-1 envelope-mediated cell-cell fusion – cherry-pick, dose response (AID 652057); assay type: functional, cell-based
[9] = blockers of HIV-1 ZM109 envelope-driven cell-cell fusion – HeLa effector, CEM target cells, luciferase, cherry-pick, dose response (AID 652058); assay type: functional, cell-based;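 also: luciferase signal from HIV-1 Env mediated cell-cell fusion of effector and target cells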
Paired box protein Pax-8 = Paired box protein Pax-8 (Homo sapiens, UniProt Q06710); test: PAX8 transcriptional activity inhibition in RMG-I – RMG-I cells, luciferase, cherry-pick, dose response (AID 687027); assay type: functional, cell-based;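 also: luciferase reporter driven by Pax8 target thyroperoxidase promoter measured by SteadyGlo luminescence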
[10] = off-target signal loss in HeLa-CEM21 co-culture – HeLa F-luc CTL cells, cherry-picked, counter-screen for HIV-1 Env fusion inhibitor project, dose response (AID 652040); assay type: functional, cell-based;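 also: potency for signal decrease marking cytotoxic or nonspecific inhibition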
[11] = HIV-1 AD8 envelope cell-cell fusion blockers – cherry-pick, dose response (AID 652062); assay type: functional, cell-based;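 also: luciferase signal from cell-cell fusion driven by HIV-1 clade B AD8 Env; potency is for inhibitors of fusion seen as a drop in luminescence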
[12] = general cell-killing toxicity readout – plate reader, dry powder samples, cytotoxicity control for PAX8 inhibitor project, dose response (AID 743021); assay type: functional, cell-based
[13] = A Cell Based Secondary Assay To Explore Cytotoxicity of Compounds that Sensitize Mycobacterium Tuberculosis to Beta-Lactam Antibiotics.; assay type: functional
Estrogen receptor = target: T5, Estrogen receptor (Homo sapiens, UniProt P03372);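 also: potency for inhibiting coactivator peptide recruitment to the receptor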
T5 sequence (P03372 whole entry): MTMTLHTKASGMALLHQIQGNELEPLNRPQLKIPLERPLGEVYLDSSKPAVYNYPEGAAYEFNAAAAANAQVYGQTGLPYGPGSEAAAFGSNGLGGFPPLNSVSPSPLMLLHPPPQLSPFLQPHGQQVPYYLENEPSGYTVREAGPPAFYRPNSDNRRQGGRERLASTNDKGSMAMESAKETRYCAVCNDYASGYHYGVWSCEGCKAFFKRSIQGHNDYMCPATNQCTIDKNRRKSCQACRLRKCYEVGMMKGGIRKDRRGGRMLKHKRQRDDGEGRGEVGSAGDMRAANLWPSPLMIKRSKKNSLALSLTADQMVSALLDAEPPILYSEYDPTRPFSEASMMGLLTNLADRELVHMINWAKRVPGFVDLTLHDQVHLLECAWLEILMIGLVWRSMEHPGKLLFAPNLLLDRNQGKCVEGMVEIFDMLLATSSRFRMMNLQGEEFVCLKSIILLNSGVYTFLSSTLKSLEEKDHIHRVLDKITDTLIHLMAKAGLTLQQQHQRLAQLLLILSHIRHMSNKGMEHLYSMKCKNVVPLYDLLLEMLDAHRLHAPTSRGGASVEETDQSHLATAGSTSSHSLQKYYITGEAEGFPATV

[14] = target: ADP-ribosylation factor GTPase-activating protein 1 (Rattus norvegicus, UniProt Q62848); test: Fluorescence polarization-based biochemical high throughput dose response screening assay to identify inhibitors of ADP-ribosylation factor GTPase activating protein 1 (ARFGAP1).; assay type: functional
[15] = Trypanosoma cruzi growth suppression in host cells – NIH3T3 host cells, beta-gal luminescence, confirmation (AID 2044); assay type: functional, cell-based;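 also: intracellular parasites grown in NIH/3T3 mouse fibroblasts as host cells; luminescent beta-galactosidase reporter signal from transgenic T. cruzi replicating inside host cells; inhibitors lower the luminescence signal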
[16] = viability of PTEN-deleted HCT116 cells – cell-based, HCT116 PTEN knockout, dose response (AID 1047); assay type: functional;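 also: HCT116 colon tumor cells with PTEN knocked out; cells exposed to compound for 60 hours before readout; potency for loss of cell viability measured by luminescence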
[17] = NIH3T3 cell viability loss – ATP luminescence, mouse fibroblasts, counter-screen, dose response (AID 2010); assay type: functional, cell-based;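 also: cells exposed to compound for about 90 hours before reading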
[18] = viability of HCT116 lacking mutant beta-catenin – cell-based, human colon tumor, dose response (AID 1045); assay type: functional;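 also: HCT116 colon tumor cells with beta catenin knocked out; cells exposed to compound for 60 hours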
[19] = Luminescence Cell-Based Dose Response to Identify Activators of 5'UTR Stem-Loop Driven Prion Protein mRNA Translation in H4-C Neuroglioblastoma Cells. [Related pubchem assays: 1829 (Project Summary), 1814 (Primary HTS)]; assay type: functional
[20] = Luminescence Cell-Based Dose Response HTS to Identify Activators of Luciferase Translation or Activity in H4 […] Cells. [Related pubchem assays: 1829 (Project Summary), 1814 (Primary HTS)]; assay type: functional
H4 = test: Luminescence Cell-Based Dose Response HTS to Identify Activators of 5'UTR Stem-Loop Driven Prion Protein mRNA Translation in H4 Neuroglioblastoma Cells. [Related pubchem assays: 1829 (Project Summary), 1814 (Primary HTS)]; assay type: functional; conditions: Homo sapiens
[21] = Luminescence Cell-Based Dose Response to Identify Activators of Luciferase Translation or Activity in H4-C Neuroglioblastoma Cells. [Related pubchem assays: 1829 (Project Summary), 1814 (Primary HTS)]; assay type: functional
[22] = Luminescence Cell-Based Dose Confirmation to Identify Activators of 5'UTR Stem-Loop Driven Alpha-Synuclein mRNA Translation in H4 Neuroglioblastoma Cells. [Related pubchem assays: 1829 (Project Summary), 1814 (Primary HTS)]; assay type: functional

Sequence of ADP-ribosylation factor GTPase-activating protein 1 (Q62848 whole entry): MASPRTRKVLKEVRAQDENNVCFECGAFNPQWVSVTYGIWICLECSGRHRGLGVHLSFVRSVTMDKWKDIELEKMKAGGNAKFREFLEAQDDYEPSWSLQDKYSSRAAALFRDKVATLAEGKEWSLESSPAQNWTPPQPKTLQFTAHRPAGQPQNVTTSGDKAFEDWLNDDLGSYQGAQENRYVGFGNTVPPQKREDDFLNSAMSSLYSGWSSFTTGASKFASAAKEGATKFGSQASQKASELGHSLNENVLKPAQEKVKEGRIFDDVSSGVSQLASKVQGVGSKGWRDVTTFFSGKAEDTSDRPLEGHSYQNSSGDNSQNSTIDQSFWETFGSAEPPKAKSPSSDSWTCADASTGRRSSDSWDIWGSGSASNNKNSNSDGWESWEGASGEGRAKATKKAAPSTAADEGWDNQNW
Sequence of Paired box protein Pax-8 (Q06710 whole entry, the tested form may be a part): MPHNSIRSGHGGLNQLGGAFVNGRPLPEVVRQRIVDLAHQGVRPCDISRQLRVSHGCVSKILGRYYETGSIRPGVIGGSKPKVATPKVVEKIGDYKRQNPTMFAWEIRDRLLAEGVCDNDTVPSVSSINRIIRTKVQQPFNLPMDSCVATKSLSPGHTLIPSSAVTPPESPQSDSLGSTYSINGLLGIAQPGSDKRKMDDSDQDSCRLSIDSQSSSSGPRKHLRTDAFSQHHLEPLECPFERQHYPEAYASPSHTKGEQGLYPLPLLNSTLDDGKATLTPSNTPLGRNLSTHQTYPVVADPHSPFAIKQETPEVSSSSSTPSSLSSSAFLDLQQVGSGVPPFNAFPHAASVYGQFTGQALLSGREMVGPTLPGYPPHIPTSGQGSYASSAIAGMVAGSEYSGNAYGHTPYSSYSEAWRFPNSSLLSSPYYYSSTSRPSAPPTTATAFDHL

O=S1(=O)NC2c3ccccc3CC2O1 (stereo not drawn)
IC50 [1]: 19.5 µM (active)
IC50 [2]: 9.78 µM (active)

O=C(Nc1ccc(F)cc1)c1nn(-c2ccccc2)c(=O)cc1Cl
AC50 [3]: 11.9 µM (active)
EC50 (Protein RecA): 8.71 µM (active)
IC50 [4]: 4.16 µM (active)

CCn1cnc2cc(NCc3ccc(Br)cc3)ccc21
EC50 [5]: > 50 µM (active)

COc1cc(/C=N/O)ccc1OCc1ccc(C(=O)O)cc1
EC50 [6]: 1.78 µM (active)
IC50 [7]: > 39.8 µM (not active)
AC50 [8]: 0.351 µM (active)
AC50 [9]: 6.61 µM (active)
AC50 (Paired box protein Pax-8): 5.79 µM (active)
AC50 [10]: 0.82 µM (active)
AC50 [11]: 1.49 µM (active)
AC50 [12]: 25.6 µM (active)

CCSc1nnc(NC(=O)C2Cc3ccccc3CN2C(=O)c2ccco2)s1 (stereo not drawn)
CC50 [13]: > 40 µM (active)
IC50 (Estrogen receptor): 7.47 µM (active)

Cc1onc(-c2ccccc2Cl)c1C(=O)NCc1cccnc1
IC50 (Estrogen receptor): > 50 µM (not active)

O=C(/C=C/c1c(F)cccc1Cl)N1CCOCC1
EC50 [5]: > 50 µM (active)

O=C(C[C@H]1C[C@@H]2c3cc(NC(=O)C4CCOCC4)ccc3O[C@@H]2[C@@H](CO)O1)NCc1ccc(Oc2ccccc2)cc1
AC50 [12]: 65.1 µM (active)

Cc1ccc2nc(SCC(=O)N3CCCC3)nc(=O)n2c1
IC50 [14]: 45.2 µM (inactive)

O=C(c1ccc2c3c(cccc13)CC2)C1CCCN(Cc2ncc[nH]2)C1 (stereo not drawn)
EC50 [5]: > 50 µM (active)

O=C(COC(=O)CCOc1ccccc1)NCc1ccco1
IC50 (Estrogen receptor): 16.6 µM (active)

Cc1ccc(/C=N/c2ccc(N(C)C)cc2)o1
EC50 [15]: 1.12 µM (active)
EC50 [16]: 42.3 µM (active)
EC50 [17]: > 60 µM (not active)
EC50 [18]: 58 µM (active)
IC50 [1]: > 100 µM (inactive)
IC50 [2]: 18.1 µM (active)

O=C(COC(=O)CC1CCCC1)Nc1cc2c(cc1Cl)C(=O)c1ccccc1C2=O
EC50 [19]: 2.27 µM (active)
EC50 [20]: < 0.1 µM (inconclusive)
EC50 (H4): 21.7 µM (active)
EC50 [21]: 0.438 µM (active)
IC50 (Estrogen receptor): 22.3 µM (active)
EC50 [22]: 0.497 µM (active)

N#Cc1c(NC(=O)C2CC(c3c(F)cccc3Cl)=NO2)sc2c1CCC2 (stereo not drawn)
IC50 [14]: 43.6 µM (inactive)

O=C(CN1CCCN(Cc2ccc(F)cc2Cl)C1=O)NC1CCCCCCC1
AC50 [8]: 30.1 µM (active)
AC50 [10]: > 70 µM (inactive)
AC50 [11]: 44.3 µM (active)
